Assay results taken from DBAASP.
Converted amounts (≈) assume the structure as drawn. One block for each molecule: values may come before it.

Tests used:
Assay in all cases: ≥ marks a high value that may be exact or a test limit, other limits are often not marked, values filed in µg/mL are converted to µM
Escherichia coli = tested on: Escherichia coli
Listeria innocua = tested on: Listeria innocua
Micrococcus luteus A270 = tested on: Micrococcus luteus A270
[1] = tested on: Staphylococcus aureus NCTC 8325
[2] = tested on: Escherichia coli ATCC 25922
[3] = tested on: Candida albicans ATCC 90028
[4] = tested on: Pseudomonas aeruginosa ATCC 15442
[5] = tested on: Pseudomonas aeruginosa PAO1
[6] = tested on: Streptococcus mutans ATCC 25175
[7] = tested on: Staphylococcus aureus ATCC 25923
Staphylococcus aureus MR = tested on: Staphylococcus aureus MR
[8] = tested on: Candida albicans ATCC 10231
[9] = tested on: Staphylococcus aureus ATCC 43300
Escherichia coli D31 = tested on: Escherichia coli D31
[10] = tested on: Bacillus subtilis ATCC 6633
Pseudomonas aeruginosa = tested on: Pseudomonas aeruginosa
Streptococcus pneumoniae = tested on: Streptococcus pneumoniae
Enterococcus faecium = tested on: Enterococcus faecium
Acinetobacter baumannii = tested on: Acinetobacter baumannii
Klebsiella pneumoniae = tested on: Klebsiella pneumoniae
[11] = tested on: Pseudomonas aeruginosa H1001
[12] = tested on: Micrococcus luteus ATCC 9341
Candida albicans = tested on: Candida albicans
Salmonella typhimurium = tested on: Salmonella typhimurium
Staphylococcus aureus = tested on: Staphylococcus aureus
Staphylococcus xylosus = tested on: Staphylococcus xylosus
[13] = tested on: Escherichia coli DH5alpha

SMILES: CC(C)C[C@H](NC(=O)[C@@H](NC(=O)[C@H](CCCCN)NC(=O)[C@H](CO)NC(=O)[C@H](CC(C)C)NC(=O)[C@H](CC(C)C)NC(=O)[C@H](CO)NC(=O)[C@H](C)NC(=O)[C@H](CC(C)C)NC(=O)[C@H](Cc1ccccc1)NC(=O)[C@@H]1CCCN1C(=O)[C@H](CC(C)C)NC(=O)[C@@H](N)Cc1ccccc1)C(C)C)C(N)=O [FLPFLASLLSKVL]
- MIC [1]: ≥ 80 µM

SMILES: CC[C@H](C)[C@@H]1NC(=O)[C@H](C)NC(=O)[C@@H](NC(=O)[C@@H](NC(=O)[C@@H](NC(=O)[C@H](CCCCN)NC(=O)[C@H](C)NC(=O)[C@H](C)NC(=O)[C@H](CCSC)NC(=O)CNC(=O)[C@H](C)NC(=O)[C@@H](NC(=O)[C@@H](NC(=O)[C@@H]2CCCN2C(=O)[C@H](CC(C)C)NC(=O)[C@@H](N)Cc2ccccc2)[C@@H](C)CC)[C@@H](C)CC)C(C)C)[C@@H](C)CC)CSSC[C@@H](C(=O)O)NC(=O)[C@H](CCCCN)NC(=O)[C@H](CCCCN)NC(=O)[C@H]([C@@H](C)O)NC1=O [FLPIIAGMAAKVICAITKKC]
- MIC [2]: 50 µM (≈ 104 µg/mL)
- MIC [3]: 13 µM (≈ 27.2 µg/mL)
- MIC [1]: 6 µM (≈ 12.5 µg/mL)

SMILES: CC[C@H](C)[C@H](NC(=O)[C@H](Cc1cnc[nH]1)NC(=O)[C@H](CCC(N)=O)NC(=O)[C@H](CC(C)C)NC(=O)[C@@H](N)Cc1ccccc1)C(=O)N[C@H](C(=O)NCC(=O)N[C@@H](C)C(=O)N[C@@H](CC(C)C)C(=O)NCC(=O)N[C@@H](CCCCN)C(=O)N[C@@H](CC(C)C)C(=O)N[C@@H](Cc1ccccc1)C(N)=O)[C@@H](C)CC [FLQHIIGALGKLF]
- MIC [4]: ≥ 50 µM
- MIC [5]: > 100 µM
- MIC [6]: 6.2 µM (≈ 9.03 µg/mL)
- MIC [7]: 1.6 µM (≈ 2.33 µg/mL)
- MIC [2]: 12.5 µM (≈ 18.2 µg/mL)
- MIC (Staphylococcus aureus MR): 6.2 µM (≈ 9.03 µg/mL)
- MIC [8]: 50 µM (≈ 72.8 µg/mL)
- MIC [9]: 6.2 µM (≈ 9.03 µg/mL)
- MIC (Escherichia coli D31): ≥ 50 µM
- MIC [10]: 25 µM (≈ 36.4 µg/mL)

SMILES: CC[C@H](C)[C@H](N)C(=O)N[C@@H](CCCCN)C(=O)N[C@@H](CC(C)C)C(=O)N[C@@H](CC(C)C)C(=O)N[C@@H](CS)C(=O)N[C@@H](CCCN=C(N)N)C(=O)N[C@H](C(=O)N[C@@H](Cc1cnc[nH]1)C(=O)N[C@@H](CCCCN)C(=O)N[C@@H](CCCCN)C(=O)O)C(C)C [IKLLCRVHKK]
- MIC [11]: 10.1 µM (≈ 12.5 µg/mL)

SMILES: CC[C@H](C)[C@H](N)C(=O)N[C@@H](CC(C)C)C(=O)N1CCC[C@H]1C(=O)N[C@@H](Cc1c[nH]c2ccccc12)C(=O)N[C@@H](CCCCN)C(=O)N[C@@H](Cc1c[nH]c2ccccc12)C(=O)N1CCC[C@H]1C(=O)N[C@@H](Cc1c[nH]c2ccccc12)C(=O)N[C@@H](Cc1c[nH]c2ccccc12)C(=O)N1CCC[C@H]1C(=O)N[C@@H](C)C(=O)N[C@@H](CCCN=C(N)N)C(=O)N[C@@H](CCCN=C(N)N)C(N)=O [ILPWKWPWWPARR]
- MIC [12]: 1.6 µM (≈ 2.87 µg/mL)
- MIC (Escherichia coli): 2.79 µM (≈ 5 µg/mL)
- MIC (Candida albicans): 0.0045 µM (≈ 0.00806 µg/mL)
- MIC (Salmonella typhimurium): 2.79 µM (≈ 5 µg/mL)
- MIC (Staphylococcus aureus): 44.6 µM (≈ 80 µg/mL)

SMILES: CC[C@H](C)[C@H](NC(=O)[C@H](CC(C)C)NC(=O)[C@@H](NC(=O)[C@H](CC(C)C)NC(=O)[C@@H](NC(=O)[C@H](CCCCN)NC(=O)[C@H](CCCN=C(N)N)NC(=O)[C@H](CCCCN)NC(=O)[C@H](CCCN=C(N)N)NC(=O)[C@@H](N)CCCCN)[C@@H](C)CC)[C@@H](C)CC)C(=O)N[C@@H](CCCCN)C(=O)N[C@@H](CCCN=C(N)N)C(=O)N[C@@H](CCCCN)C(=O)O [KRKRKILILIKRK]
- MIC (Staphylococcus xylosus): 0.5 µM (≈ 0.847 µg/mL)
- MIC [13]: 8 µM (≈ 13.5 µg/mL)

SMILES: NCCCC[C@H](NC(=O)[C@H](Cc1c[nH]c2ccccc12)NC(=O)[C@H](Cc1c[nH]c2ccccc12)NC(=O)[C@@H]1CCCN1C(=O)[C@H](Cc1c[nH]c2ccccc12)NC(=O)[C@@H](N)CCCCN)C(=O)N[C@@H](Cc1c[nH]c2ccccc12)C(=O)N[C@@H](CCCN=C(N)N)C(=O)N[C@@H](CCCN=C(N)N)C(N)=O [KWPWWKWRR]
- MIC [11]: ≥ 87.5 µM

SMILES: CC[C@H](C)[C@H](NC(=O)[C@H](CCCN=C(N)N)NC(=O)[C@H](CCCN=C(N)N)NC(=O)[C@@H]1CCCN1C(=O)CNC(=O)[C@H](CCCN=C(N)N)NC(=O)[C@@H]1CCCN1C(=O)[C@H](CCCN=C(N)N)NC(=O)[C@@H]1CCCN1C(=O)[C@H](CC(C)C)NC(=O)[C@H](Cc1ccc(O)cc1)NC(=O)[C@@H]1CCCN1C(=O)[C@@H]1CCCN1C(=O)[C@H](CCCCN)NC(=O)[C@H](CC(=O)O)NC(=O)[C@@H](N)C(C)C)C(=O)N[C@@H](Cc1ccc(O)cc1)C(=O)N[C@@H](CC(N)=O)C(=O)N[C@@H](CCCN=C(N)N)C(=O)NCC(=O)O [VDKPPYLPRPRGPRRIYNRG]
- MIC [11]: 0.0872 µM (≈ 0.21 µg/mL)

SMILES: CC[C@H](C)[C@H](NC(=O)[C@H](CCCN=C(N)N)NC(=O)[C@H](CCCN=C(N)N)NC(=O)[C@@H]1CCCN1C(=O)[C@@H]1CCCN1C(=O)[C@H](CCCN=C(N)N)NC(=O)[C@@H]1CCCN1C(=O)[C@H](CCCN=C(N)N)NC(=O)[C@@H]1CCCN1C(=O)[C@H](CC(C)C)NC(=O)[C@H](Cc1ccc(O)cc1)NC(=O)[C@@H]1CCCN1C(=O)[C@@H]1CCCN1C(=O)[C@H](CCCCN)NC(=O)[C@H](CC(=O)O)NC(=O)[C@@H](N)C(C)C)C(=O)N[C@@H](Cc1ccc(O)cc1)C(=O)N[C@@H](CC(N)=O)C(=O)N[C@@H](Cc1cnc[nH]1)C(=O)NCC(=O)O [VDKPPYLPRPRPPRRIYNHG]
- MIC [11]: 0.123 µM (≈ 0.3 µg/mL)

Second part, the molecule after the results:

- MIC (Escherichia coli): 12 µM (≈ 15.2 µg/mL)
- MIC (Listeria innocua): 6 µM (≈ 7.59 µg/mL)
- MIC (Micrococcus luteus A270): 6 µM (≈ 7.59 µg/mL)
SMILES: CC(C)[C@H](NC(=O)[C@@H]1CCCN1C(=O)[C@@H](NC(=O)[C@H](Cc1ccccc1)NC(=O)[C@H](CCC(=O)O)NC(=O)[C@H](CCCCN)NC(=O)CNC(=O)[C@H](Cc1ccccc1)NC(=O)[C@H](CC(N)=O)NC(=O)[C@H](CCCN=C(N)N)NC(=O)[C@H](C)N)[C@@H](C)O)C(=O)O [ARNFGKEFTPV]

- MIC [2]: 1.3 µM (≈ 2.95 µg/mL)
- MIC (Pseudomonas aeruginosa): 4 µM (≈ 9.07 µg/mL)
- MIC (Streptococcus pneumoniae): 4 µM (≈ 9.07 µg/mL)
- MIC (Enterococcus faecium): 3.3 µM (≈ 7.48 µg/mL)
- MIC [9]: 1.5 µM (≈ 3.4 µg/mL)
- MIC (Acinetobacter baumannii): 10.7 µM (≈ 24.3 µg/mL)
- MIC (Klebsiella pneumoniae): 8 µM (≈ 18.1 µg/mL)
SMILES: CC[C@H](C)[C@H](NC(=O)[C@H](Cc1cnc[nH]1)NC(=O)CNC(=O)CN)C(=O)N[C@@H](CCCN=C(N)N)C(=O)N[C@@H](CCCN=C(N)N)C(=O)N[C@H](C(=O)N[C@H](C(=O)N[C@@H](CCCN=C(N)N)C(=O)N[C@@H](CCCCN)C(=O)N[C@H](C(=O)N[C@H](C(=O)N[C@@H](Cc1cnc[nH]1)C(=O)N[C@H](C(=O)N[C@H](C(=O)N[C@@H](CCCCN)C(=O)N[C@@H](CCCCN)C(=O)NCC(=O)NCC(=O)N[C@@H](CS)C(N)=O)[C@@H](C)CC)[C@@H](C)CC)[C@@H](C)CC)[C@@H](C)CC)[C@@H](C)CC)[C@@H](C)CC [GGHIRRIIRKIIHIIKKGGC]

- MIC (Staphylococcus xylosus): ≥ 64 µM
- MIC [13]: ≥ 64 µM
SMILES: NCCCC[C@H](NC(=O)[C@H](CCCN=C(N)N)NC(=O)[C@H](CCCCN)NC(=O)CNC(=O)[C@H](CO)NC(=O)CNC(=O)[C@H](CCCCN)NC(=O)[C@H](CCCN=C(N)N)NC(=O)[C@@H](N)CCCCN)C(=O)O [KRKGSGKRK]

- MIC (Staphylococcus xylosus): ≥ 64 µM
- MIC [13]: ≥ 64 µM
SMILES: CC[C@H](C)[C@H](NC(=O)[C@H](CC(C)C)NC(=O)[C@H](CCCCN)NC(=O)[C@H](CCCN=C(N)N)NC(=O)[C@@H](N)CCCCN)C(=O)N[C@@H](CCCCN)C(=O)N[C@@H](CCCN=C(N)N)C(=O)N[C@@H](CCCCN)C(=O)O [KRKLIKRK]

- MIC (Staphylococcus xylosus): ≥ 64 µM
- MIC [13]: ≥ 64 µM
SMILES: CC[C@H](C)[C@H](NC(=O)[C@H](CC(C)C)NC(=O)[C@@H](NC(=O)[C@@H](N)CC(C)C)[C@@H](C)CC)C(=O)N[C@@H](CCCCN)C(=O)N[C@@H](CCCN=C(N)N)C(=O)N[C@@H](CCCCN)C(=O)O [LILIKRK]

- MIC [11]: ≥ 42.4 µM
SMILES: CC[C@H](C)[C@H](NC(=O)[C@H](CCCCN)NC(=O)[C@H](CCCCN)NC(=O)[C@H](Cc1cnc[nH]1)NC(=O)[C@@H](NC(=O)[C@H](CCCN=C(N)N)NC(=O)[C@H](CS)NC(=O)[C@H](CC(C)C)NC(=O)[C@@H](N)CC(C)C)C(C)C)C(=O)N[C@@H](C)C(=O)O [LLCRVHKKIA]
